In patent US9597310B2, “Indanyloxydihydrobenzofuranylacetic acids” (Boehringer Ingelheim International GmbH, priority 2012, dated 2017):

Assays:
[1] = Chemical stability (degradation kinetics) in acidic aqueous media, HPLC recovery rate; assay type: physicochemical; conditions: pH value of ca. 1.2, acetonitrile/0.1 M aqueous HCl (2:3), 37° C.
Method: Degradation kinetics is used to simulate chemical stability of compounds in the acidic part of the gastro intestinal tract.
The chemical stability of the compounds of the invention at pH value of ca. 1.2 is determined as follows:
Compound is dissolved in an HPLC vial either in a mixture of acetonitrile/0.1 M aqueous HCl (2:3; pH ca. 1.2) or in a mixture of acetonitrile/McIlvaine buffer pH 7.4 (2:3) to get a concentration of approximately 0.25 mg/ml. The vial was then transferred into an HPLC autosampler system and maintained at a temperature of 37° C. A first sample is taken and injected immediately into a standard HPLC system with a UV DAD detector. Further samples are injected after 2, 4, 6, 8 and 10 hours. Degradation of the compound is measured by determining the recovery rate of compound [%] for each injection using an HPLC standard gradient method. Therefore the peak area of the main peak for the first injection (AUt0) is determined and set as 100%. Peak area of the main peak is determined also for the further injections (AUtn, n=2, 4, 6, 8, 10) and expressed as fraction of […] [%].

human GPR40 receptor = human GPR40 receptor (Homo sapiens (Human), UniProt O14842); assay: IP1 accumulation measurements using the IPOne assay system; assay type: cell-based; conditions: 1321N1 cells stably expressing human GPR40 receptor, 1 h stimulation
Method: IP1 accumulation measurements using the IPOne assay system—1321N1 cells stably expressing human GPR40 receptor (Euroscreen, Belgium) are seeded 24 h before the assay in white 384-well plates in culture medium containing 10% FCS, 1% Na-Pyruvate and 400 μg/mL G418. IP1 is assayed according to the manufacturer's description (Cisbio Bioassays, France). In brief, the assay is started by substitution of the culture medium by stimulation buffer (Hepes 10 mM, CaCl2 1 mM, MgCl2 0.5 mM, KCl 4.2 mM, NaCl 146 mM, glucose 5.5 mM and LiCl 50 mM, pH 7.4). Cells are stimulated for 1 h at 37° C., 5% CO2 by addition of the compounds that are diluted in stimulation buffer containing LiCl. Assays are stopped by adding HTRF-conjugates (IP1-d2 and Anti-IP1 cryptate Tb) and lysis buffer, provided by the manufacturer. After an incubation time of 1 h at room temperature plates are measured using an EnVision™, Perkin Elmer. The obtained fluorescence ratios at 665/615 […] are then used to calculate the pEC50 values using Assay Explorer 3.3 Software (Accelrys, Inc.) by interpolation using an IP1 reference curve and subsequent sigmoidal curve fitting allowing for a variable hill slope.

Sequence of human GPR40 receptor (O14842 whole entry): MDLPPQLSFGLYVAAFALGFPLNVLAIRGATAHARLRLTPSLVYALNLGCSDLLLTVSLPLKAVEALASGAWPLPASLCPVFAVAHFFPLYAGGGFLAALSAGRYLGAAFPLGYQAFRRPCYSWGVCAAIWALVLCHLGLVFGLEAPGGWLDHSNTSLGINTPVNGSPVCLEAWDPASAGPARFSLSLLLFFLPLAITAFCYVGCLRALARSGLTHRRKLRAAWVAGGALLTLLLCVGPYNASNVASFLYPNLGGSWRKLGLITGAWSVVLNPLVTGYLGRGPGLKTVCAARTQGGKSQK

Row | SMILES | Recovery rate after 2 h [1] | EC50 (human GPR40 receptor)
1 | COCCOc1ccc(Oc2ccc(F)c3c2CC[C@H]3Oc2ccc3c(c2)OC[C@H]3CC(=O)O)cc1 [Example 1, [(S)-6-{(R)-7-Fluoro-4-[4-(2-methoxy-ethoxy)-phenoxy]-indan-1-yloxy}-2,3-dihydro-benzofuran-3-yl]-acetic acid] | 97.5% | 7 nM
2 | CC(C)(O)CCOc1ccc(Oc2ccc(F)c3c2CC[C@H]3Oc2ccc3c(c2)OC[C@H]3CC(=O)O)cc1 [Example 2, [(S)-6-{(R)-7-Fluoro-4-[4-(3-hydroxy-3-methyl-butoxy)-phenoxy]-indan-1-yloxy}-2,3-dihydro-benzofuran-3-yl]-acetic acid] | >98% | 5 nM
3 | CC(C)(O)COc1ccc(Oc2ccc(F)c3c2CC[C@H]3Oc2ccc3c(c2)OC[C@H]3CC(=O)O)cc1 [Example 3, [(S)-6-{(R)-7-Fluoro-4-[4-(2-hydroxy-2-methyl-propoxy)-phenoxy]-indan-1-yloxy}-2,3-dihydro-benzofuran-3-yl]-acetic acid] | 97.5% | 13 nM
4 | CC(=O)Nc1cccc(Oc2ccc(F)c3c2CC[C@H]3Oc2ccc3c(c2)OC[C@H]3CC(=O)O)c1 [Example 6, {(S)-6-[(R)-4-(3-Acetylamino-phenoxy)-7-fluoro-indan-1-yloxy]-2,3-dihydro-benzofuran-3-yl}-acetic acid] | >98% | 8 nM
5 | O=C(O)C[C@@H]1COc2cc(O[C@@H]3CCc4c(Oc5ccc(C(=O)N6CCCC6)cc5)ccc(F)c43)ccc21 [Example 9, [(S)-6-{(R)-7-Fluoro-4-[4-(pyrrolidine-1-carbonyl)-phenoxy]-indan-1-yloxy}-2,3-dihydro-benzofuran-3-yl]-acetic acid] | >99% | 18 nM
6 | O=C(O)C[C@@H]1COc2cc(O[C@@H]3CCc4c(Oc5ccc6c(c5)CCO6)ccc(F)c43)ccc21 [Example 11, {(S)-6-[(R)-4-(2,3-Dihydro-benzofuran-5-yloxy)-7-fluoro-indan-1-yloxy]-2,3-dihydro-benzofuran-3-yl}-acetic acid] | 96.5% | 6 nM
7 | CCNC(=O)c1ccc(Oc2ccc(F)c3c2CC[C@H]3Oc2ccc3c(c2)OC[C@H]3CC(=O)O)cc1 [Example 12, {(S)-6-[(R)-4-(4-Ethylcarbamoyl-phenoxy)-7-fluoro-indan-1-yloxy]-2,3-dihydro-benzofuran-3-yl}-acetic acid] | >99% | 18 nM
8 | CC(C)(O)COc1cc(Oc2ccc(F)c3c2CC[C@H]3Oc2ccc3c(c2)OC[C@H]3CC(=O)O)ccc1C#N [Example 52, ((S)-6-{(R)-4-[4-Cyano-3-(2-hydroxy-2-methylproproxy)phenoxy]-7-fluoro-indan-1-yloxy}-2,3-dihydrobenzofuran-3-yl)-acetic acid] |  | 31 nM
9 | CC(C)(O)CCOc1ccc(Oc2ccc(F)c3c2CC[C@H]3Oc2ccc3c(c2)OC[C@H]3CC(=O)O)c(F)c1 [Example 53, ((S)-6-{(R)-7-Fluoro-4-[2-fluoro-4-(3-hydroxy-3-methylbutoxy)phenoxy]-indan-1-yloxy}-2,3-dihydrobenzofuran-3-yl)-acetic acid] |  | 7 nM
10 | Cc1noc(C)c1-c1ccc(Oc2ccc(F)c3c2CC[C@H]3Oc2ccc3c(c2)OC[C@H]3CC(=O)O)c(F)c1 [Example 54, ((S)-6-{(R)-4-[4-(3,5-Dimethylisoxazol-4-yl)-2-fluorophenoxy]-7-fluoro-indan-1-yloxy}-2,3-dihydrobenzofuran-3-yl)-acetic acid] |  | 9 nM
11 | Cn1nccc1-c1ccc(Oc2ccc(F)c3c2CC[C@H]3Oc2ccc3c(c2)OC[C@H]3CC(=O)O)c(F)c1 [Example 55, ((S)-6-{(R)-7-Fluoro-4-[2-fluoro-4-(1-methyl-1H-pyrazol-5-yl)phenoxy]-indan-1-yloxy}-2,3-dihydrobenzofuran-3-yl)-acetic acid] |  | 6 nM
12 | CC(C)(O)CCCc1ccc(Oc2ccc(F)c3c2CC[C@H]3Oc2ccc3c(c2)OC[C@H]3CC(=O)O)c(C#N)c1 [Example 56, ((S)-6-{(R)-4-[2-Cyano-4-(4-hydroxy-4-methylpentyl)phenoxy]-7-fluoro-indan-1-yloxy}-2,3-dihydrobenzofuran-3-yl)-acetic acid] |  | 38 nM
13 | O=C(O)C[C@@H]1COc2cc(O[C@@H]3CCc4c(Oc5cccc(N6CCCC6=O)c5)ccc(F)c43)ccc21 [Example 57, ((S)-6-{(R)-7-Fluoro-4-[3-(2-oxopyrrolidin-1-yl)phenoxy]-indan-1-yloxy}-2,3-dihydrobenzofuran-3-yl)-acetic acid] |  | 4 nM
14 | O=C(O)C[C@@H]1COc2cc(O[C@@H]3CCc4c(Oc5ccc(N6CCCC6=O)cc5)ccc(F)c43)ccc21 [Example 58, ((S)-6-{(R)-7-Fluoro-4-[4-(2-oxopyrrolidin-1-yl)phenoxy]-indan-1-yloxy}-2,3-dihydrobenzofuran-3-yl)-acetic acid] |  | 18 nM
15 | O=C(O)C[C@@H]1COc2cc(O[C@@H]3CCc4c(Oc5ccc(CN6CCCC6)cc5)ccc(F)c43)ccc21 [Example 59, ((S)-6-{(R)-7-Fluoro-4-[4-(pyrrolidin-1-ylmethyl)phenoxy]-indan-1-yloxy}-2,3-dihydrobenzofuran-3-yl)-acetic acid] |  | 216 nM
16 | N#CCc1ccc(Oc2ccc(F)c3c2CC[C@H]3Oc2ccc3c(c2)OC[C@H]3CC(=O)O)cc1 [Example 60, ((S)-6-{(R)-4-[4-(Cyanomethyl)phenoxy]-7-fluoro-indan-1-yloxy}-2,3-dihydrobenzofuran-3-yl)-acetic acid] |  | 20 nM
17 | N#CCCc1ccc(Oc2ccc(F)c3c2CC[C@H]3Oc2ccc3c(c2)OC[C@H]3CC(=O)O)cc1 [Example 61, ((S)-6-{(R)-4-[4-(2-Cyanoethyl)phenoxy]-7-fluoro-indan-1-yloxy}-2,3-dihydrobenzofuran-3-yl)-acetic acid] |  | 13 nM
18 | CC(C)(O)CCc1ccc(Oc2ccc(F)c3c2CC[C@H]3Oc2ccc3c(c2)OC[C@H]3CC(=O)O)c(C#N)c1 [Example 62, ((S)-6-{(R)-4-[2-Cyano-4-(3-hydroxy-3-methylbutyl)phenoxy]-7-fluoro-indan-1-yloxy}-2,3-dihydrobenzofuran-3-yl)-acetic acid] |  | 12 nM
19 | CN(C)C(=O)c1ccc(Oc2ccc(F)c3c2CC[C@H]3Oc2ccc3c(c2)OC[C@H]3CC(=O)O)cc1 [Example 63, ((S)-6-{(R)-4-[4-(Dimethylcarbamoyl)phenoxy]-7-fluoro-indan-1-yloxy}-2,3-dihydrobenzofuran-3-yl)-acetic acid] |  | 22 nM
20 | O=C(O)C[C@@H]1COc2cc(O[C@@H]3CCc4c(Oc5ccc(C(=O)N6CCOCC6)cc5)ccc(F)c43)ccc21 [Example 64, ((S)-6-{(R)-7-Fluoro-4-[4-(morpholine-4-carbonyl)phenoxy]-indan-1-yloxy}-2,3-dihydrobenzofuran-3-yl)-acetic acid] |  | 27 nM
21 | N#Cc1cc(CN2CCOCC2)ccc1Oc1ccc(F)c2c1CC[C@H]2Oc1ccc2c(c1)OC[C@H]2CC(=O)O [Example 70, ((S)-6-{(R)-4-[2-Cyano-4-(morpholin-4-ylmethyl)phenoxy]-7-fluoro-indan-1-yloxy}-2,3-dihydrobenzofuran-3-yl)-acetic acid] |  | 44 nM
22 | O=C(O)C[C@@H]1COc2cc(OC3CCc4ccccc43)ccc21 (stereo partly drawn) [XX, reference compound] | <5% | 
23 | CC(C)c1cccc2c1CC[C@H]2Oc1ccc2c(c1)OC[C@H]2CC(=O)O [XXI, reference compound] | <5% | 
